Experiments:
SW620^Gal3+ cells [1] = experiment: Tumour cell metastatic spread in mice (intravenous inoculation); format: in vivo, Balb/c nude mice; conditions: 10 mg/kg/day subcutaneously
Description: (§1) The compound of Formula I effect on cancer metastasis was assessed in Balb/c nude mice. Luciferase-transfected, Galectin-3-expressing colon cancer SW620^Gal3+ and Galectin-3-suppressed SW620^Gal3− cells were inoculated to mice intravenously and the compound of Formula I was administrated subcutaneously, 10 mg/kg/day for 3 consecutive days in the first week and then once every week. Metastasis was monitored by IVIS imaging. […] The animals were sacrificed five weeks after tumour cell inoculation and the number of metastasis nodules on the surface of the animal lungs were quantified (FIG. 12B). Administration of the compound of Formula I caused 88% reduction of lung metastasis of Galectin-3-expressing SW620^Gal3+ cells but had little effect on Galectin-3-suppressed SW620^Gal3− cells;
as §1, with “for 5” for “for 3”, “first” for “first week and then once every”, “Galectin-3-suppressed SW620^Gal3 cells.” for “Galectin-3-suppressed SW620^Gal3− cells;”
(§2) Female Balb/c nude mice aged 6-7 weeks were purchased from Charles River Laboratories (Margate, UK) and maintained in specific pathogen-free conditions with a 12:12 hour light:dark cycle. All animal studies were conducted with UK Home Office and local ethics committee approval.
(§3) Thirty-two mice were randomly divided into four groups (A to D). […] Tumour number on the surface of the lungs was assessed using a dissection microscope.

SW620^Gal3− cells [2] = experiment: as above; format: in vivo, Balb/c nude mice; conditions: 10 mg/kg/day subcutaneously; Galectin-3-suppressed SW620^Gal3− cells
Description: as §1
as §1, with “for 5” for “for 3”, “first” for “first week and then once every”, “Galectin-3-suppressed SW620^Gal3 cells.” for “Galectin-3-suppressed SW620^Gal3− cells;”
as §2, §3

SW620^Gal3+ cells [3] = experiment: Tumour growth and metastasis in chick chorioallantoic membrane (CAM) model; format: in vivo, chicken embryos
Description: (§4) Effect of the compound of Formula I on tumour formation, growth and metastasis of SW620Gal3+ and SW620Gal3− cells was assessed in the chick chorioallantoic membrane (CAM) model. Galectin-3-expressing SW620^Gal3+ and Galectin-3-suppressed SW620^Gal3− cells were transfected with pHIV-Luc-ZsGreen vector and engrafted to the CAM on embryonic day 7. The compound of Formula I (24 μM) was injected into the allantoic cavity on the following day and the tumour formation and growth was analysed by fluorescence microscopy (FIG. 10A) and IVIS imaging (FIGS. 10B-FIG. 10D) on embryonic day 14. Seventy percent eggs grafted with Galectin-3-expressing SW620^Gal3+ cells formed various sized tumours in the absence of Formula I while the number of eggs formed in the Formula I treated group was reduced to 30%.
as §4, with “SW620Gal3−” for “SW620Gal3− cells”, “SW620^Ga13−” for “SW620^Gal3−”
(§5) Fertilised white leghorn chicken eggs were obtained from Lees Lane Poultry (Wirral, UK). The eggs were windowed on embryonic Day 3 with 4 ml albumin removed. The eggs were incubated at 37° C. in 35-40% humidity until embryonic day 7. ZsGreen- and luciferase-expressing SW620Gal3+ and SW620Gal3− cells (2.5×10^6) were then embedded on the chorioallantoic membrane (CAM). On embryonic Days 8 and 11, the inhibitors (24 μM) or control DMSO/PBS were injected into the allantoic cavity. The eggs were incubated until embryonic Day 14 The eggs were imaged using a Microscope as well as by IVIS. The embryos were then immediately decapitated. Organs were examined under fluorescence microscope for presence of ZsGreen-labelled tumour cells. Ethical approval for the experiments using chick embryos up to embryonic Day 14 was obtained from the Liverpool Animal Welfare and Ethical Review Body.

SW620^Gal3− cells [4] = experiment: as above; format: in vivo, chicken embryos; conditions: 24 μM; Galectin-3-suppressed SW620^Gal3−
Description: as §4
as §4, with “SW620Gal3−” for “SW620Gal3− cells”, “SW620^Ga13−” for “SW620^Gal3−”
as §5

[5] = system: Salmonella typhimurium strain TA98; experiment: Ames test (genotoxicity); format: cell-based; conditions: TA98, up to 1 mM tested, with or without metabolic activation (S9)
Description: (§6) Mutagenic potential of the compound of Formula I was assessed by Ames test in two Salmonella typhimurium strains TA98 and TA100 without and with metabolic activation (S9).
(§7) Effect of the compound inhibitors on genotoxicity was determined using the Salmonella typhimurium strains of TA 98 and TA 100 in the presence and absence of metabolic activation (S9). Each test concentration included the vehicle and positive controls. Briefly, the compounds were serially diluted in 24-well plates with or without the presence metabolic activation system (S9) and was incubated for 90 min at 37° C. in 250 rpm in a orbital shaking incubator. TA98 and TA100 were then introduced to the wells for 90 min. 50 μL aliquots from each well was dispensed into 384 well plates and incubated for 48 hrs at 37° C. in an incubator before positive wells were scored.

[6] = system: Salmonella typhimurium strain TA100; experiment: Ames test (genotoxicity); format: cell-based; conditions: TA100, up to 1 mM tested, with or without metabolic activation (S9)
Description: as §6, §7

C[C@H]1COc2c(N3CCN(C)CC3)c(F)cc3c(=O)c(C(=O)NNc4ccc(N)cc4)cn1c23 [Formula I]
lung metastasis in IVIS imaging (SW620^Gal3+ cells [1]; 14 days after tumour cell inoculation): Substantially lower | reduction of lung metastasis (metastasis nodules on lung surface) (SW620^Gal3+ cells [1]; five weeks after tumour cell inoculation): 88% | effect on lung metastasis (SW620^Gal3− cells [2]): little effect | number of eggs that formed tumours (SW620^Gal3+ cells [3]; 24 μM into allantoic cavity, embryonic day 14, 70% without Formula I): 30% | reduction of luminescence intensity in the tumours (SW620^Gal3+ cells [3]; 24 μM, IVIS imaging, embryonic day 14, vs group without Formula I): 66% | tumours showing metastasis to other organs (SW620^Gal3+ cells [3]; 24 μM, 25% in the absence of Formula I): none | tumour formation or growth (SW620^Gal3− cells [4]): no effect | mutagenic activity [5]: no mutagenic activity | mutagenic activity [6]: no mutagenic activity

Reference: patent US20260137696A1, “Compositions Comprising an Inhibitor of Galectin-3” (University of Liverpool, priority 2023, published 2026)
